Data as given in paper PMC12655682, “Screening-Identified Oxazole-4-Carboxamide KB-2777 Exhibits In Vitro Anti-Coronavirus Activity” (Pharmaceutics, 2025).
pEC50: −log10 of the molar value. Where two headings read alike, the source gives them in different places.

How the values were obtained:
HCoV-NL63 [1] = test: Primary antiviral screening (virus inhibition) in HCoV-NL63-infected LLC-MK2 cells; format: cell-based, Human coronavirus NL63; settings: for SI (=CC50/EC50): HCoV-NL63/LLC-MK2; for antiviral effect: HCoV-NL63/LLC-MK2, up to 25 µM
Experimental: For antiviral activity, cells in 96-well plates were infected and treated with test compounds as indicated and incubated for 48–72 h. Cell viability was quantified by WST (EZ-Cytox) at 450 nm on the same reader. Cytoprotective effect was calculated by normalizing to infected DMSO controls and converting to percent protection: % Protection = ((V_drug + virus − V_virus-only)/(V_mock − V_virus-only)) × 100.
We screened 11 oxazole-4-carboxamide derivatives (Figure 1) against HCoV-NL63 in LLC-MK2 cells and quantified antiviral activity and cytotoxicity (Figure 2). Several derivatives inhibited NL63 with distinct selectivity profiles. […] Visible crystals or precipitates formed at ≥50 µM without loss of viability or morphological change; therefore, downstream assays were performed at ≤25 µM.

[2] = Cytotoxicity (EZ-Cytox WST) in LLC-MK2 cells; format: cell-based; settings: rhesus monkey, 72 h exposure
Experimental: Cells were seeded at 2 × 10^4 cells per well in 96-well plates and, after overnight attachment, exposed to test compounds for 72 h in maintenance medium. The final DMSO concentration was ≤0.1% (v/v) for all conditions, including vehicle controls. Cell viability was quantified using EZ-Cytox WST reagent (DoGenBio, Seoul, Republic of Korea) according to the manufacturer’s instructions; absorbance was read at 450 nm on a SpectraMax i3x microplate reader (Molecular Devices, San Jose, CA, USA). Viability for each well was normalized to the mean of vehicle-treated (mock) controls on the same plate and expressed as percent viability. Each condition included technical replicates (n = 3) per experiment. Concentration–response data from ≥3 independent experiments were fit to a four-parameter logistic (4PL) model in GraphPad Prism 10.1.2 (GraphPad Software, San Diego, CA, USA) (log10-transformed concentrations; bottom and top unconstrained).

HCoV-NL63 [3] = test: Combination (concentration matrix, ZIP synergy) HCoV-NL63/LLC-MK2; format: cell-based, Human coronavirus NL63; settings: HCoV-NL63/LLC-MK2, alone
Experimental: Concentration matrices were generated within the non-cytotoxic range for KB-2777 + nirmatrelvir (HCoV-NL63/LLC-MK2) and KB-2777 + GS-441524 (HCoV-OC43/Vero E6). Antiviral activity was measured at 48 h post-infection. Interaction surfaces and ZIP synergy scores were computed using SynergyFinder (v3) with default normalization (virus + DMSO control = 0% inhibition). Heatmaps and δ-surfaces were exported directly from SynergyFinder.

[4] = Human coronavirus NL63, LLC-MK2, HCoV-NL63/LLC-MK2, primary screen, read-out: EC50
[5] = HCoV-NL63/LLC-MK2, primary screen, read-out: EC50
[6] = Human coronavirus NL63, LLC-MK2, HCoV-NL63/LLC-MK2, primary screen

SMILES	SI (=CC50/EC50) (HCoV-NL63 [1])	pEC50 (HCoV-NL63 [1]; [4])	CC50 at 72 h [2] [µM]	pEC50 (HCoV-NL63 [1]; [5])	pEC50 (HCoV-NL63 [1]; [6])	antiviral effect (HCoV-NL63 [1])	antiviral activity of the single agent in the combination assay (HCoV-NL63 [3])
COC(=O)[C@H](C)NC(=O)c1nc(-c2ccc(C(F)(F)F)cc2)oc1-c1ccc(SC)cc1 [KB-2738]	2.84	5.11	21.8	–	–	–	–
COC(=O)[C@H](C)NC(=O)c1nc(-c2ccc(C(F)(F)F)cc2)oc1-c1cccc(SC)c1 [KB-2742]	<5.40	5.33	< 25	–	–	–	–
COC(=O)[C@H](C)NC(=O)c1nc(-c2ccc(C(F)(F)F)cc2)oc1-c1cccc(OC)c1 [KB-2767]	3.33	5.03	30.8	–	–	–	–
COC(=O)[C@H](CC(C)C)NC(=O)c1nc(-c2ccc(C(F)(F)F)cc2)oc1-c1cccc(SC)c1 [KB-2768]	5.12	5.18	34.1	–	–	–	–
CSc1cccc(-c2oc(-c3ccc(C(F)(F)F)cc3)nc2C(=O)N[C@@H](C)C(N)=O)c1 [KB-2769]	<2.67	5.63	< 6.25	–	–	–	–
CSc1cccc(-c2oc(-c3ccc(C(F)(F)F)cc3)nc2C(=O)N[C@@H](CC(C)C)C(N)=O)c1 [KB-2771]	–	–	< 25	5.37	5.30 to 5.40	–	–
COC(=O)C(CC1CCNC1=O)NC(=O)c1nc(-c2ccc(C(F)(F)F)cc2)oc1-c1cccc(SC)c1 (stereo not shown) [KB-2772]	–	–	> 50	–	–	no detectable antiviral effect	–
COC(=O)C(CC1CCNC1=O)NC(=O)c1nc(-c2ccc(C(F)(F)F)cc2)oc1-c1cccc(OC)c1 (stereo not shown) [KB-2773]	–	–	< 25	–	–	no detectable antiviral effect	–
COC(=O)[C@H](CC(C)C)NC(=O)c1nc(-c2ccc(C(F)(F)F)cc2)oc1-c1cccc(OC)c1 [KB-2774]	–	–	25.2	5.36	5.30 to 5.40	–	–
COc1cccc(-c2oc(-c3ccc(C(F)(F)F)cc3)nc2C(=O)N[C@@H](C)C(N)=O)c1 [KB-2775]	–	–	3.12	–	–	no detectable antiviral effect	–
CC(C)(C)[C@H](NC(=O)C(F)(F)F)C(=O)N1C[C@H]2[C@@H]([C@H]1C(=O)N[C@H](C#N)C[C@@H]1CCNC1=O)C2(C)C [nirmatrelvir]	–	–	–	–	–	–	limited activity
